Values joined by “and” are separate entries in the source; they are usually repeats but may differ in a detail not shown here. Equal entries are not always repeated.
Assay: Repeated-treatment efficacy for removing an intravenous dose of 238Pu (excretion, tissue retention, clinical observations), female and male arms;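 on % Recovered Dose ART: abdominal tissue remainder incl GI tract reproductive organs spleen bladder and fat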
Type: in vivo, Swiss-Webster mice
Conditions: male animals, listed as 3,4,3-LI(1,2-HOPO); for % Recovered Dose Urine per Day, Day 3 / % Recovered Dose Urine per Day, Day 4 / % Recovered Dose Urine per Day, Day 5 / % Recovered Dose Urine per Day, Day 6 / % Recovered Dose Urine per Day, Day 7 / % Recovered Dose Urine per Day, Day 2 / % Recovered Dose Urine per Day, Day 1: Day 7 necropsy
Method: The objective of this study was to characterize the efficacy of 3,4,3-L1(1,2-HOPO) at enhancing elimination from an internal plutonium burden in female and male Swiss-Webster mice administered a soluble citrate complex of ^238Pu and treated multiple times, starting at 24 hours after the exposure. Efficacy was evaluated by comparing the tissue contents, urinary and fecal excretions of ^238Pu in treated animals versus untreated animals.
The medical countermeasure 3,4,3-L1(1,2-HOPO) was administered parenterally (ip) or orally (po) via consecutive injections or gavages (six daily or twelve twice daily) starting at 24 hours post contamination at the following four selected doses: 30 μmol/kg ip, 150 μmol/kg po, 300 μmol/kg po, and 600 μmol/kg po (equivalent to respective approximate human doses range of […], using the accepted conversion system of mouse doses into human equivalent doses—HED—based on body surface area). Oral doses also included the permeability enhancer selected during formulation development work.
• Challenge isotope: ^238Pu • Challenge dose: 25 nCi (i.e., approximately 0.8 μCi/kg) • Route of contamination: Intravenous (iv) tail-vein • Route of treatment: Intraperitoneal Injection (ip) or Oral (po) • Frequency of treatment: Multiple (once- or twice-daily for 6 days) doses, starting 24 hr postcontamination • Treatment dose calculation: Dose calculations (mg/kg or μmol/kg) for the decorporation agent were based on the individual body weight measured after contamination. • Study Duration: 11 days, in-life
c. […] Test article and control dose formulations were prepared within 1 day of dose administration, by weighing out the appropriate amount of test article, dispersing in vehicle. For ip solutions, the test article was used alone, while for oral suspensions, a mixture of test article and excipient (90:10, w:w) was used. The pH was adjusted to 7.0-7.4 for ip administration and 5.0-5.5 for oral administration with sterile NaOH. Dose formulations were prepared at room temperature and filter-sterilized. • Storage: 2-8° C.; refrigerated; protected from light. • Characterization: The concentration of each test article formulation was verified by high-performance liquid chromatography-mass spectrometry. • Test Article Handling: Test, reference, and control article formulations were handled with the use of eye protection, gloves, and a protective laboratory coat. • Correct Dose Assurance: The test article was weighed with calibrated balances. The administration of each dose formulation was properly documented, and the amount administered to each animal recorded.
e. Experimental Procedures (In-Life Evaluations and Euthanasia) • Contamination: Single administration by intravenous (iv) tail-vein injection (0.2 mL injection volume) under isoflurane anesthesia. Three standard 0.2 mL injections were performed into polyethylene bottles and pre-loaded with aliquots of concentrated nitric acid on each injection day. Six female and six male mice were culled for necropsy 1 hr post-contamination and were used as standards. A11 standards were processed and counted together with the final samples to allow verification of the contamination dose. • Dose Administration: Single administration by intraperitoneal injection (ip) or oral gavage (po) under isoflurane anesthesia. • Mortality/Morbidity: Assessed at least once daily. • Clinical Observations: Recorded once daily (4 hr post-dose on day of treatment), or more often as clinical signs warranted. […]

O=C(NCCCN(CCCCN(CCCNC(=O)c1cccc(=O)n1O)C(=O)c1cccc(=O)n1O)C(=O)c1cccc(=O)n1O)c1cccc(=O)n1O [3,4,3-L1(1,2-HOPO)]
% Recovered Dose Urine per Day, Day 3 (animal group B): 0.61% and 1.15% and 1.12% and 1.18%
% Recovered Dose Urine per Day, Day 4 (animal group B): 1.30% and 0.41% and 0.54% and 0.89%
% Recovered Dose Urine per Day, Day 5 (animal group B): 0.61% and 0.58% and 0.10% and 0.65%
% Recovered Dose Urine per Day, Day 6 (animal group B): 0.18% and 0.64% and 0.10%
% Recovered Dose Urine per Day, Day 7 (animal group B): 0.17% and 0.37% and 0.28% and 0.50%
% Recovered Dose Urine per Day, Day 2 (animal group C): 1.72% and 4.28% and 3.19% and 0.38%
% Recovered Dose Urine per Day, Day 3 (animal group C): 0.95% and 1.32% and 0.98% and 0.50%
% Recovered Dose Urine per Day, Day 4 (animal group C): 0.59% and 1.17% and 0.68% and 0.55%
% Recovered Dose Urine per Day, Day 5 (animal group C): 0.35% and 0.65% and 0.33% and 0.19%
% Recovered Dose Urine per Day, Day 6 (animal group C): 0.19% and 0.70% and 0.52% and 0.07%
% Recovered Dose Urine per Day, Day 7 (animal group C): 0.10% and 0.94% and 0.45% and 0.11%
% Recovered Dose Urine per Day, Day 1 (animal group E): 21.72% and 14.01% and 18.66% and 17.47%
% Recovered Dose Urine per Day, Day 2 (animal group E): 3.64% and 2.67% and 3.46% and 2.04%
% Recovered Dose Urine per Day, Day 3 (animal group E): 1.49% and 0.90% and 1.61% and 1.12%
% Recovered Dose Urine per Day, Day 4 (animal group E): 0.67% and 0.69% and 0.59% and 0.53%
% Recovered Dose Urine per Day, Day 5 (animal group E): 0.39% and 0.62% and 0.41%
% Recovered Dose Urine per Day, Day 6 (animal group E): 0.49% and 0.53% and 0.46% and 0.31%
% Recovered Dose Urine per Day, Day 7 (animal group E): 0.21% and 0.41% and 0.23% and 0.27%
% Recovered Dose Urine per Day, Day 1 (animal group F): 19.31% and 19.65% and 13.22% and 25.18%
% Recovered Dose Urine per Day, Day 2 (animal group F): 3.62% and 1.94% and 2.38% and 2.07%
% Recovered Dose Urine per Day, Day 3 (animal group F): 1.51% and 1.15% and 1.06%
% Recovered Dose Urine per Day, Day 4 (animal group F): 0.98% and 0.55% and 0.74% and 0.83%
% Recovered Dose Urine per Day, Day 5 (animal group F): 0.45% and 0.42% and 0.47% and 0.41%
% Recovered Dose Urine per Day, Day 6 (animal group F): 0.45% and 0.47% and 0.36% and 0.29%
% Recovered Dose Urine per Day, Day 7 (animal group F): 0.55% and 0.40% and 0.72% and 0.26%
% Recovered Dose ART (Day-7 necropsy, animal group B): 2.16% and 1.57% and 1.65% and 1.32%
% Recovered Dose Combined Body (Day-7 necropsy, animal group B): 52.05% and 37.93% and 50.13% and 45.55%
% Recovered Dose Combined Excreta (Day-7 necropsy, animal group B): 47.95% and 62.07% and 49.87% and 54.45%
% Recovered Dose Kidney (Day-7 necropsy, animal group B): 0.29% and 0.25% and 0.26% and 0.45%
% Recovered Dose SKEL (Day-7 necropsy, animal group B): 15.55% and 20.00% and 23.24% and 20.71%
% Recovered Dose SOFT (Day-7 necropsy, animal group B): 3.27% and 3.41% and 2.67% and 3.29%
% Recovered Dose Total Feces (Day-7 necropsy, animal group B): 22.40% and 40.49% and 26.02% and 32.13%
% Recovered Dose Total Urine (Day-7 necropsy, animal group B): 25.54% and 21.58% and 23.85% and 22.32%
% Recovered Dose ART (Day-7 necropsy, animal group C): 1.42% and 1.55% and 1.84% and 1.39%
% Recovered Dose Combined Body (Day-7 necropsy, animal group C): 44.39% and 38.12% and 45.21% and 38.36%
% Recovered Dose Combined Excreta (Day-7 necropsy, animal group C): 55.61% and 61.88% and 54.79% and 61.64%

From patent US11684614B2, “Formulations of hydroxypyridonate actinide/lanthanide decorporation agents” (priority 2017, dated 2023)
